Source: US20150265666A1, “BOTANICAL ANTIMICROBIAL COMPOSITIONS” (THE TRUSTEES OF COLUMBIA UNIVERSITY IN THE CITY OF NEW YORK, priority 2012, published 2015)
Entries after “also recorded” stand apart in the source; their conditions may differ.

Experiments:
[1] = test system: methicillin-resistant Staphylococcus aureus (“MRSA”); test: MRSA Rapid-Kill Assay (tube-dilution, US FDA-TFM, 15 second exposure); type: cell-based
P. aeruginosa = test: Agar-plate method: sample spread on TSA, 1 hr, then inoculated; log10 reduction; type: cell-based; conditions: Example 3
Experimental: For oral care products, PHMB is preferred because BAC can produce mucosal irritation. PHMB is effective against gram negative bacteria. Therefore P. aeruginosa which is a gram negative organism was used in these tests. An agar-plate method was used/0.5 ml of the test sample was spread on TSA plates and for control PBS was used in the plate. These plates were incubated for 1 hr in the incubator at temperature 37±1° C. After 1 hr, the plates were taken out of the incubator and inoculated with 0.5 ml of 1×10^3 cfu/ml culture of P. aeruginosa. The plates were incubated for 18-24 hrs at 37±1° C. The antibacterial activity was determined by calculating the difference in log 10 colony-forming units (cfu) between control and test samples (i.e., log 10 reduction).

S. aureus [2] = test: ASTM E 2783-11 protocol, 15 seconds, ingredients in Base A (Example 16); type: cell-based; conditions: for Log reduction compared to control: ingredients in Base A; for synergistic activity with chlorhexidine (in words): Experiment 1, Base A
Experimental: The antimicrobial efficacy of a composition comprising biguanides and fennel oil, thyme oil/thymol and/or vanilla oil was tested against S. aureus (10^7 cfu/ml). […] In-vitro study Test organism: S. aureus (10^7 cfu/ml) […] These plates were incubated at 37° C. for 24 hours and the colony counts (cfu)/ml were determined.

S. aureus [3] = test: Rapid kill method (10^8 cfu/ml S. aureus), 15 seconds, oral rinse base; type: cell-based
Experimental: Synergistic effect of botanical extracts and biguanides (Rapid kill method (108 S. aureus)): The antimicrobial effect of an oral rinse base, containing the ingredients described in table 10 below, were tested against a high concentration of bacteria. In a sterile culture tube, 0.1 ml of S. aureus (10^8 cfu/ml) was treated with 0.9 ml of test mouthrinse for 15 seconds. The reaction was stopped with Drug neutralizing Fluid (DNF) and then further diluted with the same media. 0.5 ml of the dilution was then plated on Tripticase Soy Agar (TSA) and incubated at 37° C. overnight. The colony counts were determined and the log 10 reduction from the control (phosphate-buffered saline (PBS) inoculated with the same culture) was calculated.

[4] = use as oral antiseptic; cited from earlier work
[5] = test system: murine fibroblasts cell lines; conditions: cited from earlier work
[6] = test system: human dennal, gingival and osteoblastic cell lines; conditions: cited from earlier work
[7] = 0.12% solutions, oral decontamination prior to mechanical intubation; cited from earlier work
[8] = Experiment 2, S. aureus 10^7 cfu/ml, each 0.1 % w/w
[9] = Experiment 1, S. aureus 10^7 cfu/ml, T, B, F, V each 0.1 % w/w, CHG 0.12 % w/w

What does the source list for polyhexamethylene biguanide [PHMB]?
antibacterial activity, effect of combining actives (in words) ([1]; Example 1, PHMB at 0.06%): showed synergistic activity with essential oils; Log reduction from control growth ([1]; Table 1, MRSA, conc. active agent 0.012 % w/w): 0.4 log10; Log reduction from control growth ([1]; Table 1, MRSA, conc. active agent 0.06 % w/w): 3.1 log10; Log reduction from control growth ([1]; Table 2, MRSA, conc. active agent 0.012 % w/w): 0.4 log10; Log reduction from control growth ([1]; Table 5B, MRSA, conc. active agent 0.06 % w/w): 4.0 log10; antibacterial activity, effect of combining actives (in words) (P. aeruginosa): enhanced the activity of low concentrations of essential oils and lemon extract; synergistic activity with PHMB (in words) (S. aureus [2]; Experiment 2, Base A, 10^7 cfu/ml): exhibited synergistic activity when combined with either thymol or vanilla oil; also recorded: combination of either fennel seed oil and thymol or fennel seed oil, thymol and vanilla oil with PHMB also exhibited synergistic activity; Log reduction compared to control (S. aureus [2]; [8]): 1.96 log

Which “Log10 Growth” value (S. aureus [3]; Table 10, in oral rinse base, control growth 7.29) does the source give for `N=C(NCCCCCCNC(=N)NC(=N)Nc1ccc(Cl)cc1)NC(=N)Nc1ccc(Cl)cc1` [CHX (0.06%)] here?
The value was 5.60 log10.

What about the “Log10 Reduction” value (S. aureus [3]; Table 10, in oral rinse base, reduction from control (PBS)) of the same compound?
The value was 1.69 log10.

With `[H]/N=C(\N/C(=N/[H])NCCCCCCNC(=N)NC(=N)Nc1ccc(Cl)cc1)Nc1ccc(Cl)cc1` [Chlorhexidine (CHG)] as the compound, how does the “Log reduction compared to control” value (S. aureus [2]; [9]) read?
Its value is 0.73 log.

For pentanediol, which “antibacterial activity, effect of combining actives (in words)” value (“antibacterial activity, effect” below) (P. aeruginosa) is on record?
The value was “enhanced the activity of low concentrations of essential oils and lemon extract”.

Which “antibacterial activity, effect” value ([1]; Example 1, actives in base formulation) does the source give for benzalkonium chloride [BAC] here?
The value was “enhanced the activity of essential oil mixtures containing thymol”.

What about the “antibacterial activity, effect” value ([1]; Example 4) of the same compound?
Its value is “enhances the activity of essential oils (CN+LG+T)”.

And the “Log reduction from control growth” value ([1]; Table 1, MRSA, conc. active agent 0.13 % w/w)?
Its value is 0.05 log10.

What about the “Log reduction from control growth” value ([1]; Table 2, MRSA, conc. active agent 0.13 % w/w) of the same compound?
The value was 0.05 log10.

And the “Log reduction from control growth” value ([1]; Table 5A, MRSA, conc. active agent 0.6 % w/w)?
The value was 0.5 log10.

With `Cc1ccc(C(C)C)c(O)c1` [T (Thymol)] as the compound, how does the “Log reduction compared to control” value (S. aureus [2]; [9]) read?
Its value is 1.29 log.

And the “Log reduction compared to control” value (S. aureus [2]; [8])?
Its value is 1.29 log.

What does the source list for `[H]/N=C(\N/C(=N/[H])NCCCCCCNC(=N)NC(=N)Nc1ccc(Cl)cc1)Nc1ccc(Cl)cc1` [chlorhexidine]?
synergistic antibacterial activity of botanical extracts and biguanides (in words) (S. aureus [3]; Example 10): did not show such synergism; synergistic activity with chlorhexidine (in words) (S. aureus [2]; 10^7 cfu/ml): combination of either fennel seed oil and thymol or fennel seed oil, thymol and vanilla oil with chlorhexidine also exhibited synergistic activity; synergistic activity with chlorhexidine (in words) (S. aureus [2]; 10^7 cfu/ml, listed as Chlorhexidine): exhibits synergistic activity when combined with either thymol or basil oil; adverse effects [4]: irritation of the oral mucosa, discoloration of teeth and altered taste perception; cytotoxicity [5]: cytotoxic; cytotoxicity [6]: cytotoxic; risk of acquiring VAP [7]: can reduce the risk of acquiring VAP
